# Earlier results in patent publication US11931686B1, “Carbon capture process utilizing inert gas medium to assist thermal desorption” (CARBON CAPTURE INC., priority 2022, dated 2024).
# Tested on: not given
# Details: Table 1
row,SMILES,Solubility in Water
1,"Cc1ccccc1C [o-Xylene, o-xylene]",0.02 g/100 g
2,"C[Si](C)(C)O[Si](C)(C)O[Si](C)(C)O[Si](C)(C)C [MD2M, decamethyltetrasiloxane]",insoluble
3,"CCOC(=O)c1ccccc1 [Ethyl Benzoate, ethyl benzoate]",0.07 g/100 g

# Tested on: Rat
# Details: Rat; Table 1, inert chemical fluids
row,SMILES,LD50 (Rat)
1,"Cc1ccccc1C [o-Xylene, o-xylene]","3,600 mg/kg"

# Same assay, conditions: Rat; Table 3, alcohols
row,SMILES,LD50 (Rat)
1,CC(C)CCO [i-Amyl Alcohol],"1,300 mg/kg"

# Same assay, conditions: Rat; Table 4, hydrocarbons
row,SMILES,LD50 (Rat)
1,CCCCCCCC [Octane],">5,000 mg/kg"
2,c1ccc2c(c1)CCCC2 [Tetralin],"2,860 mg/kg"

# Same assay, conditions: rat, in vivo
row,SMILES,LD50 (Rat)
1,CC(C)CO [i-Butanol],"2,460 mg/kg"
2,CC(C)O [2-Propanol],"3,600 mg/kg"
3,Cc1ccc(C(C)C)cc1 [p-Cymene],"4,750 mg/kg"
4,CCCO [1-Propanol],"1,870 mg/kg"
5,Clc1ccccc1 [Chlorobenzene],">2,000 mg/kg"
6,CO [Methanol],"5,628 mg/kg"
7,"Cc1cccc(C)c1 [m-Xylene, m-xylene]","5,000 mg/kg"
8,CCCCC(CC)CO (centres unmarked) [2-Ethylhexanol],"3,730 mg/kg"
9,"CCCCCCCCCCC [Undecane, undecane]","2,000 mg/kg"
10,"C[Si](C)(C)O[Si](C)(C)O[Si](C)(C)O[Si](C)(C)C [MD2M, decamethyltetrasiloxane]",">2,000 mg/kg"
11,CCC(CC)CO [2-Ethylbutanol],"1,850 mg/kg"
12,CCCCO [1-Butanol],790 mg/kg
13,CCO [Ethanol],"7,340 mg/kg"
14,"CCOC(=O)c1ccccc1 [Ethyl Benzoate, ethyl benzoate]","2,100 mg/kg"
15,CCC(C)O (centres unmarked) [2-Butanol],"2,193 mg/kg"
16,CCCCCCC [Heptane],">5,000 mg/kg"
